Results taken from patent US20090239936A1, “Prophylactic and Therapeutic Agent for Cancer” (priority 2006, published 2009).
Blank lines part the entries; values can stand above or below the compound they belong to.

Assays:
[1] = system: P-glycoprotein; experiment: P-glycoprotein expression level by western blotting after drug addition; type: cell-based, human
Procedure: In […] HCT-15 cells (obtained from Developmental Therapeutics Program, National Cancer Institute, National Institutes of Health, Bethesda, Md., USA) and […] SW620 cells (obtained from Developmental Therapeutics Program, National Cancer Institute, National Institutes of Health, Bethesda, Md., USA), which expressed P-glycoprotein at a high level, screening of drugs that reduced the expression level of P-glycoprotein was performed by western blotting. […]
Inhibitory effects of MEK inhibitor U0126 on the expression level of P-glycoprotein in HCT-15 and SW620 cells prepared by the same procedure as described in PREPARATION EXAMPLE 1 in which endogenous P-glycoprotein was expressed and in the MCF-7/MDR and MDA-MB-231/MDR cells in which exogenous P-glycoprotein was expressed were monitored with passage of time in a manner similar to EXAMPLE 1. […]
Using MEK inhibitor PD098059 (purchased from Cell Signaling Technology; see English, J. et al. (1999) Exp. Cell Res. 253, 255), which has an action mechanism different from U0126, inhibitory effects of MEK inhibitor PD098059 on the expression level of P-glycoprotein in the HCT-15 and SW620 cells in which endogenous P-glycoprotein was expressed and in the MCF-7/MDR and MDA-MB-231/MDR cells in which exogenous P-glycoprotein was expressed were monitored with passage of time in a manner similar to EXAMPLE 1. […]

[2] = system: BCRP; conditions: U0126 10 μM; human colon cancer (HT-29, KM12), non-small-cell lung cancer (NCI-H460, A549) and ovarian cancer (OVACAR-5) cells; in 12 hours later (FIG. 5)
[3] = system: MDR1 mRNA; conditions: U0126 10 μM
[4] = system: SW620-14 cells; experiment: cell growth inhibition test, SW620-14; type: cell-based; conditions: Homo sapiens, 120 h, read-out: IC50 concentration (50% growth inhibitory concentration), 5 days
[5] = system: MCF-7/MDR cells; experiment: cell growth inhibition test, MCF-7/MDR; type: cell-based; conditions: Homo sapiens, MCF7, 120 h, read-out: IC50 concentration (50% growth inhibitory concentration), 5 days
[6] = system: MDA-MB-231/MDR cells; experiment: cell growth inhibition test, MDA-MB-231/MDR; type: cell-based; conditions: Homo sapiens, 120 h, read-out: IC50 concentration (50% growth inhibitory concentration), 5 days
[7] = system: HCT-15 cells; experiment: cell growth inhibition test, HCT-15; type: cell-based; conditions: Homo sapiens, 120 h, read-out: IC50 concentration (50% growth inhibitory concentration), 5 days

Compound: O=c1cc(N2CCOCC2)oc2c(-c3ccccc3)cccc12 [LY294002, 2-(4-morpholinyl)-8-phenyl-1(4H)-benzopyran-4-one]
P-glycoprotein expression level ([1]; HCT-15 cells and SW620 cells, endogenous P-glycoprotein, western blotting (FIG. 1)): not down-regulated

Compound: N#CC(=C(N)Sc1ccccc1N)C(C#N)=C(N)Sc1ccccc1N [U0126, 1,4-diamino-2,3-dicyano-1,4-bis[2-aminophenylthio]butadiene]
expression level of P-glycoprotein ([1]; U0126 10 μM, MCF-7/MDR and MDA-MB-231/MDR cells (exogenous P-glycoprotein), in 8 to 12 hours (FIG. 2)): ≤ 10 % of control | expression level of BCRP [2]: reduced | expression level of MDR1 mRNA [3]: Any change was not observed

IC50 [4]: 5 nM | IC50 [5]: 4 nM | IC50 [6]: 800 nM | IC50 [7]: 100 nM
Compound: CC(=O)O[C@H]1C(=O)[C@@]2(C)[C@H]([C@H](OC(=O)c3ccccc3)[C@]3(O)C[C@H](OC(=O)[C@H](O)[C@@H](NC(=O)c4ccccc4)c4ccccc4)C(C)=C1C3(C)C)[C@]1(OC(C)=O)CO[C@@H]1C[C@@H]2O [paclitaxel]
